Source: publication PMC10887108, “Novel Brain-Penetrant, Small-Molecule Tubulin Destabilizers for the Treatment of Glioblastoma” (Biomedicines, 2024)

Experiments:
[1] = target: T1, Porcine tubulin (colchicine binding site) (Sus scrofa, UniProt P02554); assay: Colchicine competitive binding assay (fluorescence); conditions: compound 50 µM, colchicine 10 μM, tubulin 20 μM
T1 construct: purchased Cytoskeleton, Inc. T240; host or cells: brain tissue (purified)

porcine tubulin = target: T2, porcine tubulin (Sus scrofa, UniProt P02554); assay: Tubulin polymerization assay (fluorescent reporter); type: biochemical; conditions: porcine tubulin 20 μM; for reduction in tubulin polymerization (AUC): compound 5 μM, relative to DMSO
T2 construct: purchased Cytoskeleton, Inc. BK011P
Description: Tubulin polymerization was evaluated by monitoring the incorporation of a fluorescent reporter into MTs during polymerization. The tubulin polymerization assay kit (Cytoskeleton, Inc. BK011P; Denver, CO, USA) was used according to the manufacturer’s instructions. Briefly, the tubulin reaction mix was kept on ice until immediately prior to use.
(A,B) Representative tubulin polymerization plots and data quantification. […] (C) Immunofluorescence staining of β-tubulin in U87 glioblastoma cells. […] Images were captured using an Operetta confocal microscope at 40× magnification. Scale bar, 10 μm. […] Data was collected with a BD FACS Canto II Flow Cytometer and analyzed using the BD FACSDiva software. (E) The percentage of cells in G1, S, and G2/M phases from the histograms in (D). Data are plotted as mean ± SD from at least three independent experiments. Analysis between groups in (B) was performed using a one-way ANOVA with Tukey’s multiple comparisons test.

U87 glioblastoma cells [2] = assay: Cell cycle analysis (propidium iodide flow cytometry); type: cell-based, human; conditions: 48 h
Description: […] Cells were washed in ice-cold PBS, resuspended in 1 mL of ice-cold 70% ethanol, and fixed overnight at −20 °C. Cells were centrifuged and resuspended in PBS containing RNAse A at a final concentration of 0.5 mg/mL (MilliporeSigma 10109142001; Burlington, MA, USA) and propidium iodide at a final concentration of 0.04 mg/mL (Sigma-Aldrich P4170, St. Louis, MO, USA) for 1 h at 37 °C. Nuclear staining was analyzed using a BD FACSCanto II flow cytometer (BD Biosciences; Franklin Lakes, NJ, USA) to determine cell cycle distribution. Cell cycle analysis was performed using the BD FACSDiva software v8.0.

[3] = test system: U87 cells (microtubule network); assay: Immunofluorescent staining of cellular β-tubulin; type: cell-based, human; conditions: U87, compounds at their IC50 concentrations, 24 h
Description: U87 cells (4000/well) were plated in black 96-well plates (Perkin Elmer 6055302; Waltham, MA, USA) and grown overnight. Cells were treated with compounds for 24 h, fixed with 4% paraformaldehyde for 20 min, and permeabilized with FoxP3 permeabilization buffer (eBioscience/Thermo Fisher Scientific 00-5523-00; Waltham, MA, USA) for 10 min at RT. Cells were incubated with an anti-TUBB3 (Tuj1) antibody (1:1000; […] Technologies 60052; Vancouver, BC, Canada) labeled with Hoechst 33342 dye (1:2000; Thermo Fisher Scientific H3570; Waltham, MA, USA). Images (40×) were taken with an automated high-content imaging microscope (Operetta, Perkin Elmer; Waltham, MA, USA).

U87 glioblastoma cells [4] = assay: alamarBlue cell viability assay, U87; type: cell-based; conditions: Homo sapiens, 72 h, U87, 72 h, average absolute IC50
Description: (§1) Cells (100 µL/well) were seeded in 96-well tissue culture plates (Greiner Bio-One 650090; Kremsmünster, Austria). The plating density (cells/well) for each cell line was as follows: LN-18 (3000), U87 (4000), and HMC3 (5000). After overnight incubation, compounds were added to the cells (50 µL at 3× concentration, final 0.1% DMSO), and plates were incubated for 72 h. Cell viability was assessed by the addition of 25 µL of alamarBlue for a final concentration of 100 µM final concentration (Resazurin redox reagent, Sigma-Aldrich R7017; St. Louis, MO, USA). After a 4 h incubation, fluorescence was read on a CLARIOstar Plus plate reader (BMG Labtech, Ortenberg, Germany) at EX 570/EM 590 nm.

[5] = test system: LN-18 glioblastoma cells (TMZ-resistant); assay: alamarBlue cell viability assay, LN-18; type: cell-based; conditions: Homo sapiens, LN-18, 72 h, average absolute IC50
Description: as §1

Structure (SMILES)	increase in tubulin polymerization (AUC) (porcine tubulin; paclitaxel 3 μM)	IC50 (U87 glioblastoma cells [4])	IC50 [5]	reduction of colchicine–tubulin fluorescence relative to control [1]	reduction in tubulin polymerization (AUC) (porcine tubulin)	cells arrested at G2/M (U87 glioblastoma cells [2]; U87, 5 µM)	effect on tubulin organization / MT network morphology [3]	cells arrested at G2/M (U87 glioblastoma cells [2]; U87, 20 nM)
COC(=O)Nc1nc2ccc(C(=O)c3cccs3)cc2[nH]1 [NOC, Nocodazole, reference compound]				79%				
CO[C@H]1CC[C@@H](C(=O)NC(=O)Nc2ccc(Oc3ncc(Cl)cn3)c(C)c2)CC1 [RGN3062]		588 nM	73 nM		36%	73%	substantial tubulin disruption	
COc1cc2c(c(OC)c1OC)-c1ccc(OC)c(=O)cc1[C@@H](NC(C)=O)CC2 [colchicine, reference compound]							varying levels of disruption of tubulin organization	64%

The next lines start with results.

increase in tubulin polymerization (AUC) (porcine tubulin; paclitaxel 3 μM)	IC50 (U87 glioblastoma cells [4])	IC50 [5]	Structure (SMILES)	reduction of colchicine–tubulin fluorescence relative to control [1]	reduction in tubulin polymerization (AUC) (porcine tubulin)	cells arrested at G2/M (U87 glioblastoma cells [2]; U87, 5 µM)	effect on tubulin organization / MT network morphology [3]	cells arrested at G2/M (U87 glioblastoma cells [2]; U87, 20 nM)
91%			CC(=O)O[C@H]1C(=O)[C@@]2(C)[C@H]([C@H](OC(=O)c3ccccc3)[C@]3(O)C[C@H](OC(=O)[C@H](O)[C@@H](NC(=O)c4ccccc4)c4ccccc4)C(C)=C1C3(C)C)[C@]1(OC(C)=O)CO[C@@H]1C[C@@H]2O [PX, paclitaxel, reference compound]					
	> 10000 nM	2430 nM	CO[C@H]1CC[C@H](C(=O)NC(=O)Nc2ccc(Oc3ncc(Cl)cn3)c(C)c2)CC1 [RGN3096]		no difference relative to the DMSO control	11%	no visible effect on tubulin and cell structure	
